Results from US20220056014A1, “PHENYLPYRROLIDINE COMPOUND AND USE THEREOF” (WUHAN HUMANWELL INNOVATIVE DRUG RESEARCH AND DEVELOPMENT …, priority 2018, published 2022).
pIC50: −log10 of the molar value. Like-named read-outs stand apart in the source and are kept apart here.

Legend:
[1] = target: T1, PDE4B (Homo sapiens, UniProt Q07343); test: PDE4B enzyme activity assay (PDE-Glo Phosphodiesterase Assay Kit); assay type: biochemical
T1 construct: purchased Enzo Life Sciences BML-SE522-0020
Procedure, shortened: (§1)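 Recombinant human PDE4B (1 ng/μl working solution) or PDE4D (4 ng/μl working solution) preincubated 5 min at RT with compound, then reacted 20 min with cAMP (2 μM in added solution). PDE-Glo termination/detection and Kinase-Glo steps followed; luminescence read and IC50 fitted.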

[2] = target: T2, PDE4D (Homo sapiens, UniProt Q08499); test: PDE4D enzyme activity assay (PDE-Glo Phosphodiesterase Assay Kit); assay type: biochemical
T2 construct: purchased Enzo Life Sciences BML-SE523-0020
T2 sequence (Q08499 whole entry): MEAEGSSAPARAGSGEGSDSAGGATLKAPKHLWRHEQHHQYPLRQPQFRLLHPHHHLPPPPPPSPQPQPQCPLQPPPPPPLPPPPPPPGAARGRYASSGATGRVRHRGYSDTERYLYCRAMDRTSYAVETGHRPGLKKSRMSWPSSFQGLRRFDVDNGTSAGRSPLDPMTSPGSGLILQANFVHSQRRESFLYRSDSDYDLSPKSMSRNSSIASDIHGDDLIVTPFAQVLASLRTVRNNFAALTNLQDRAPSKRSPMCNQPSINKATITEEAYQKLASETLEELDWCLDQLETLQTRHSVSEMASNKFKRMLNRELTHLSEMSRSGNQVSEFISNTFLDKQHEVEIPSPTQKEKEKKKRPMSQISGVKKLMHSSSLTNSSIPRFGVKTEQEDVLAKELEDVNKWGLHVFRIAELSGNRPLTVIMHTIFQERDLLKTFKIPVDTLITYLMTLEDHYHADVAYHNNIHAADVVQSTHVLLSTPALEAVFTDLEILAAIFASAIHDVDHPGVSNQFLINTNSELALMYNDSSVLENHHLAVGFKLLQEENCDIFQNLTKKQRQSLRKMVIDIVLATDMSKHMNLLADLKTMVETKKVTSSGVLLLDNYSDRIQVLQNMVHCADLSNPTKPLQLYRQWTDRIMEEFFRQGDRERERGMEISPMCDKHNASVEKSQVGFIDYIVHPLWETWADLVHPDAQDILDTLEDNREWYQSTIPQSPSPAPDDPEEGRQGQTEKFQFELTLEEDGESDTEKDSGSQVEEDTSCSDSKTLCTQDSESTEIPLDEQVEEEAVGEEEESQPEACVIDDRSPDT
Procedure, shortened: as §1

[3] = system: LPS-induced secretion of TNFα in human PBMCs; test: LPS-induced secretion of TNFα in human PBMCs; assay type: cell-based; settings: Homo sapiens, PBMC, 24 h, LPS 10 ng/ml
Procedure, shortened: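 PBMCs isolated by Lymphoprep density centrifugation were seeded at 5×10^4/well in RPMI1640 + 10% FBS and given compound, with 30 min pre-incubation, then stimulated with 10 ng/ml LPS (final). After 24 h, supernatant TNF-α was measured by ELISA kit.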

[4] = system: LPS-stimulated TNF-α release; test: LPS-stimulated TNF-α release in mice; assay type: in vivo, Balb/c mice; settings: Mus musculus, oral 50 mg/kg (positive control 100 mg/kg), 1 mg/kg LPS i.p.
Description: 18 Balb/c mice (6 to 8 weeks) were randomly assigned to a blank group, a model group, and an administration group, 6 mice in each group. A vehicle (blank group, model group) or 50 mg/kg compound (administration group, where the dose for the positive control group was 100 mg/kg) was orally administrated. 30 min after the oral administration, PBS (blank group) or 1 mg/kg LPS (model group and administration group) was injected intraperitoneally. 90 min or 120 min after the intraperitoneal injection, blood was collected from the hearts of the mice, and still stood at 2-8° C. for 4 hours, and centrifuged at 5000 rpm for 10 min to collect the serum. The serum was stored at −80° C. for testing.
The serum TNF-α level was tested using a mouse TNF-α detection kit (Mouse TNFa ELISA kit: Biolegend, Cat: 430904). The inhibitory activity of the compounds against the TNF-α release was calculated based on the serum TNF-α level.
Inhibitory activity of compound %={1−(TNFα concentration of administration group−TNFα concentration of blank group)/(TNFα concentration of model group−TNFα concentration of blank group)}×100%.

[5] = system: Mouse CIA arthritis model; test: Mouse CIA arthritis model test; assay type: in vivo, DBA/1 mice; settings: 30 mg/kg oral, twice a day for 21 days
Description: (1) Preparation of Type II Collagen/Complete Freund's Adjuvant
Preparation of acetic acid: 2N acetic acid was diluted to 100 mM, filtered with 0.22 μm filter membrane, and stored at 4° C.
Preparation of bovine type II collagen solution: bovine type II collagen (CII) was dissolved in 100 mM acetic acid solution and stored at 4° C. overnight. A final concentration of collagen was 8 mg/mL.
Preparation of emulsion: the CII solution stored overnight was mixed with an equal volume of complete Freund's adjuvant, and homogenized on ice by a high-speed homogenizer at 30,000 rpm for approximately 60 min, until the solution formed a stable emulsion.
After DBA/1 mice were anesthetized with isoflurane, 50 μl of prepared collagen emulsion (containing 200 micrograms of CII) was injected subcutaneously in the tail (2-3 cm from the base of the tail) for immunization. The day of the primary immunization was recorded as day 0, and the following days were recorded sequentially. On day 21, the same volume of collagen emulsion was injected into the tail in the same way. Mice in the normal group were not immunized.
On day 21, the mice that had been induced to have arthritis were randomly grouped according to their body weights, such that the average body weight of each group was consistent, and they were randomly divided into 6 treatment groups for administration, with 10 mice in each group.
G1 group included normal mice without being treated; G2 group was given a blank vehicle; G3 to G7 groups were administrated with the compound at a dose of 30 mg/kg, twice a day for 21 days. The volume of oral administration was 10 mL/kg.
After the enhanced immunization, the disease incidence of the mice was observed every day. When the mice began to develop symptoms (clinical symptoms of arthritis emerged), the symptoms were graded as 0 to 4 according to the different degrees of pathological changes (redness, joint deformation), where the highest score for each limb was 4, and the highest score for each animal was 16. The mice were graded at least three times a week.
The area under curve (AUC) of clinical scores of each group from day 21 to day 42 was calculated, and the inhibition rate % of the clinical score AUC of the administration group was calculated:
Inhibition rate %=1−(administration group AUC/blank vehicle group AUC)*100%
The experimental data are expressed as Mean±standard error (Mean±SEM), and the clinical scores were analyzed with One-way ANOVA, where p<0.05 was considered to be a significant difference.

T1 sequence (Q07343 whole entry): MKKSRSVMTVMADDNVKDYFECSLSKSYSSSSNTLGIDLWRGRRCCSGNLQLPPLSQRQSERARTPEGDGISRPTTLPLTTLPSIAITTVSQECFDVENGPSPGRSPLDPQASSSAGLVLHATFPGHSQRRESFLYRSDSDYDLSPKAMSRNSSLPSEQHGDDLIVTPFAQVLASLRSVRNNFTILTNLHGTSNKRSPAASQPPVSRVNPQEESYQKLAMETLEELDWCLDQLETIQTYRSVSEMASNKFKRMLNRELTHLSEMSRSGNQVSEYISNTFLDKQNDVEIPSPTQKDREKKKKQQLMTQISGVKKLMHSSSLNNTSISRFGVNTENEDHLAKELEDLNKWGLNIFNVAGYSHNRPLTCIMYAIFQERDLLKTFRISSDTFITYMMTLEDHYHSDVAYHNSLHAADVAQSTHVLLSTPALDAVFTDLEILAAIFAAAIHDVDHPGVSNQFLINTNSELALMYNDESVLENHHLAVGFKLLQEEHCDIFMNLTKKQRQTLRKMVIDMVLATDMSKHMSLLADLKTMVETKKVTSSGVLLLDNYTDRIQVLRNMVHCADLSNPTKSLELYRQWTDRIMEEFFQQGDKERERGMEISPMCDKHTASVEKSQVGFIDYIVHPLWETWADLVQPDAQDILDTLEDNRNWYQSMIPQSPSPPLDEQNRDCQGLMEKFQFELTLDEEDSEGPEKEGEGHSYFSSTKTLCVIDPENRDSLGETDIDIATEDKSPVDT

With `CCc1ccc(N2CC(Oc3cc([C@@H]4CN(C(=O)[C@@H](O)CO)C[C@@]4(C)[C@@H](C)O)ccc3OC)C2)nc1` [Compound 031, (S)-1-((3S,4S)-4-(3-((1-(5-ethylpyridin-2-yl)azetidin-3-yl)oxy)-4-methoxyphenyl)-3-((R)-1-hydroxyethyl)-3-methylpyrrolidin-1-yl)-2,3-dihydroxypropan-1-one] the pIC50 [1] was 8.73, the “IC50 (PDE4D)/IC50 (PDE4B)” value ([1]; selectivity ratio) was 1.37 and the pIC50 [2] was 8.59. The pIC50 [3] was 9.15, the inhibition in vivo at 50 mg/kg ([4]; 1.5 h, blood 90 min after LPS, read-out: Inhibition rate (%) of LPS-stimulated TNF-α release, 90 min) was 64.8% and the inhibition in vivo at 50 mg/kg ([4]; 2 h, blood 120 min after LPS, read-out: Inhibition rate (%) of LPS-stimulated TNF-α release, 120 min) was 78.3%. For the same molecule, the “inhibition rate based on clinical score AUC” value ([5]; AUC day 21 to day 42) was 85.0% and the “Clinical score (endpoint)” value ([5]; day 42, highest score 16) was 2.1.
